In patent US20200247794A1, “PHARMACOPHORES, COMPOUNDS AND METHODS HAVING APPLICATION IN THE TREATMENT OF CANCER THROUGH INHIBITION OF CYP17A1 AND CYP19A1” (MANGOSUTHU UNIVERSITY OF TECHNOLOGY, priority 2015, published 2020):
Read-outs that look alike come from different tables or passages of the source.

What was measured:
CYP17A1 [1] = target: T1, CYP17A1 (Homo sapiens, UniProt P05093); conditions: cited from earlier work; for pIC50: −log IC50 (M), converted from literature IC50; for IC50: literature value, no unit in the table, nM
T1 sequence (P05093 1-508): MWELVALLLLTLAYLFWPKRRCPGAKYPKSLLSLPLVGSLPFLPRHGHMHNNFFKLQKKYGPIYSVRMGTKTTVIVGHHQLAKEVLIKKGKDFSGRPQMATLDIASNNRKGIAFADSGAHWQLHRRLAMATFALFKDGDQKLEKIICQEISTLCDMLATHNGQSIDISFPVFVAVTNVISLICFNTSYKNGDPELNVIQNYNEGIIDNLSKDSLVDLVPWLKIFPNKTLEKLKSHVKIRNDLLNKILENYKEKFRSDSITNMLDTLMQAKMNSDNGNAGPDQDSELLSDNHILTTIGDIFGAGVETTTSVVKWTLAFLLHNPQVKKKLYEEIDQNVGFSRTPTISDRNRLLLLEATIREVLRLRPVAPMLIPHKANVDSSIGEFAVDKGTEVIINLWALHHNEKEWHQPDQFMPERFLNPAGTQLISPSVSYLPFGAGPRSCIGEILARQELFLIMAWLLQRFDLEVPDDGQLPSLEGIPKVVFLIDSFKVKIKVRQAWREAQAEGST

CYP17A1 [2] = target: T1, CYP17A1; test: CYP17A1 inhibition (CYP17A1 bactosomes, progesterone substrate, LC-MS/MS); format: biochemical; parameters: purchased Cypex, Dundee, UK; host or cells: bacterial membranes (bactosomes); conditions: for inhibitory potency of CYP17A1 (in words): summary of Table 2; for IC50: 20 pmol/ml bactosomes, 0.1 μM progesterone, 50 μM to 50 nM
Protocol: CYP17A1 inhibition was measured using 20 pmol/ml CYP17A1 bactosomes (Cypex, Dundee, UK) and 0.1 μM progesterone as a substrate and 1 mM NADPH in 50 mM potassium phosphate buffer pH 7.4 containing 5 mM magnesium chloride. Inhibitors were dissolved in DMSO and serially diluted in seven ½ log steps, final concentrations ranging from 50 μM to 50 nM. Reaction volume was 100 μl and final DMSO concentration was 1% (v/v). Reactions were started by the addition of NADPH and incubated at 37° C. for 20 minutes with shaking at 1800 rpm on a Bioshake IQ (Q-Instruments, Jena, Germany). Reactions were terminated by the addition of 200 μl methanol containing 1 μM tolbutamide as an internal standard.

CYP1A2 = target: T2, CYP1A2 (Homo sapiens, UniProt P05177); test: CYP inhibition, 5 CYP bactosome mix: CYP1A2 (tacrine); format: in vitro ADME; conditions: tacrine 0.5 μM
T2 construct: purchased Cypex, Dundee CYP/XG001, Batch XG001001; host or cells: E. coli
T2 sequence (P05177 1-516): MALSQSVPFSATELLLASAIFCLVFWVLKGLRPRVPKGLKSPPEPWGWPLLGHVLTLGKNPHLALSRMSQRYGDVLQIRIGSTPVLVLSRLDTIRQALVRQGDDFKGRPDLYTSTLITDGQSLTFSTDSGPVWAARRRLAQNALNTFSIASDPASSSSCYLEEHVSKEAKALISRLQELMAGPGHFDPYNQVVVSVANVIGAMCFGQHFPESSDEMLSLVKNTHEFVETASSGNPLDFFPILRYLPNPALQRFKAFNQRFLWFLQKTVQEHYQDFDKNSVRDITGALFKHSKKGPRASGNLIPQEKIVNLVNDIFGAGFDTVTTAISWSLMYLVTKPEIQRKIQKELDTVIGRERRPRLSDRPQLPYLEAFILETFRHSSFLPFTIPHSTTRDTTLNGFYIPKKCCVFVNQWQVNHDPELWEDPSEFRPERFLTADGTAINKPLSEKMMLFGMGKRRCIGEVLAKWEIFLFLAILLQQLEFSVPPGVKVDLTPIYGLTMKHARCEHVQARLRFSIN
Description: (§1) CYP Inhibition Against Major 5 Human Liver CYPs in E. coli CYPEX Membranes
The final DMSO concentration was 1%.

CYP2C9 = target: T3, CYP2C9 (Homo sapiens, UniProt P11712); test: CYP inhibition, 5 CYP bactosome mix: CYP2C9 (diclofenac); format: in vitro ADME; conditions: diclofenac 2 μM
T3 construct: purchased Cypex, Dundee CYP/XG001, Batch XG001001; host or cells: E. coli
Description: as §1
The final DMSO concentration was 1%.

CYP2C19 = target: T4, CYP2C19 (Homo sapiens, UniProt P33261); test: CYP inhibition, 5 CYP bactosome mix: CYP2C19 ((S)-mephenytoin); format: in vitro ADME; conditions: (S)-mephenytoin 40 μM
T4 construct: purchased Cypex, Dundee CYP/XG001, Batch XG001001; host or cells: E. coli
Description: as §1
The final DMSO concentration was 1%.

CYP2D6 = target: T5, CYP2D6 (Homo sapiens, UniProt P10635); test: CYP inhibition, 5 CYP bactosome mix: CYP2D6 (bufuralol); format: in vitro ADME; conditions: bufuralol 10 μM
T5 construct: purchased Cypex, Dundee CYP/XG001, Batch XG001001; host or cells: E. coli
Description: as §1
The final DMSO concentration was 1%.

CYP3A4 = target: T6, CYP3A4 (Homo sapiens, UniProt P08684); test: CYP inhibition, 5 CYP bactosome mix: CYP3A4 (midazolam); format: in vitro ADME; conditions: midazolam 2.5 μM
T6 construct: purchased Cypex, Dundee CYP/XG001, Batch XG001001; host or cells: E. coli
Description: as §1
The final DMSO concentration was 1%.

[3] = system: CYP1A2, CYP2C9, CYP2C19, CYP2D6, and CYP3A4; test: CYP inhibition against major 5 human liver CYPs (panel, summary in words); format: in vitro ADME; conditions: drug-drug interaction remark
CYP19A1 = target: T7, CYP19A1 (Homo sapiens, UniProt P11511); test: CYP19A1 inhibition (CYP19/MFC High Throughput Inhibitor Screen Kit, fluorescence); format: biochemical
T7 sequence (P11511 1-503): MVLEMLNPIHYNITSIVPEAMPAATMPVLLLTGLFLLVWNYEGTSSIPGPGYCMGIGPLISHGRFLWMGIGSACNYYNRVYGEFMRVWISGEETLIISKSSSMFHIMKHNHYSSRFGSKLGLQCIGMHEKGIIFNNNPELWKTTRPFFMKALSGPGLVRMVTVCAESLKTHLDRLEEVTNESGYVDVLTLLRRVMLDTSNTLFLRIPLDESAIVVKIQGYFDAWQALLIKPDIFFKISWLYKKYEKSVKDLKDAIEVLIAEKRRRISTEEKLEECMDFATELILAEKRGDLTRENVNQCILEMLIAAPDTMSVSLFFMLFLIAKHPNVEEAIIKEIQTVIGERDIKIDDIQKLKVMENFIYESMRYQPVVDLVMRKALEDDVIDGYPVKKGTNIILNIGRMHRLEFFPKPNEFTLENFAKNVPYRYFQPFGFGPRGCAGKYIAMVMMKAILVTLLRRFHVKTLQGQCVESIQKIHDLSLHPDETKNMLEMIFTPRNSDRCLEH
Protocol: Test compounds and control inhibitors were prepared as stocks in either Acetonitrile or DMSO from the solid compound. Compounds were serially diluted in ½ log steps in the same solvent.
CYP19A1 inhibition experiments were performed using the CYP19/MFC High Throughput Inhibitor Screen Kit (Corning).
CYP19A1 reactions were performed in black 96 well-plates (Greiner) according to the manufacturer's instructions. […] Final organic solvent concentrations were either 4% (v/v) acetonitrile or 0.5% (v/v) Dimethyl sulfoxide. The plates were covered with self-adhesive film lids and incubated for 10 minutes at 37° C. Reactions were terminated by the addition of 75 μl Stop Solution (100 mM Tris base in acetonitrile: MilliQ water (80:20).
Fluorescence of 7-Hydroxy-4-trifluoromethylcoumarin (HFC) was measured on a SpectraMax® i3x (Molecular Devices) using 409 nm and 530 nm as excitation and emission wavelengths, respectively.
The CYP activities for each test compound/positive control inhibitor at each concentration were converted to % of control activity (CA). The LC-MS/MS peak responses (CYP metabolite peak area/internal standard peak area) for each test compound or positive control inhibitor were used and the response for each sample was expressed as a percentage of an uninhibited control (DMSO incubation). The data were then expressed as (log(CA/100-CA) and used to generate a pseudo-Hill plot, the slope and y axis intercept are used to calculate the IC50-value according to the following equation.

[4] = 7.5 pmol/ml CYP19A1, 25 μM MFC, top concentration 50 μM (acetonitrile) or 25 μM (DMSO), read-out: CYP19A1 IC50

T6 sequence (P08684 whole entry): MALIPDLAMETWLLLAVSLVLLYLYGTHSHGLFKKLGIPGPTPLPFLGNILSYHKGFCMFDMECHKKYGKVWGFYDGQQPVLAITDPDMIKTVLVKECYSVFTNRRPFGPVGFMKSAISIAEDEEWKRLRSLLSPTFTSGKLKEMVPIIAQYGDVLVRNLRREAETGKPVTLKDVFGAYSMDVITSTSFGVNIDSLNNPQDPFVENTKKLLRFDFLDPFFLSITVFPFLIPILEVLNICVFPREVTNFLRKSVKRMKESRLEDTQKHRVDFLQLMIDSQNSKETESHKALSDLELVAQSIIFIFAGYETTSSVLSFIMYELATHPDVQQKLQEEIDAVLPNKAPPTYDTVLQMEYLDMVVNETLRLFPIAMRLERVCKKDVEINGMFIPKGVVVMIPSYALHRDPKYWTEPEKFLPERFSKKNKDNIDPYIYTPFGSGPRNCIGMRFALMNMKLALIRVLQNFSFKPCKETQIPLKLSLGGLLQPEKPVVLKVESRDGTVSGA
T3 sequence (P11712 whole entry): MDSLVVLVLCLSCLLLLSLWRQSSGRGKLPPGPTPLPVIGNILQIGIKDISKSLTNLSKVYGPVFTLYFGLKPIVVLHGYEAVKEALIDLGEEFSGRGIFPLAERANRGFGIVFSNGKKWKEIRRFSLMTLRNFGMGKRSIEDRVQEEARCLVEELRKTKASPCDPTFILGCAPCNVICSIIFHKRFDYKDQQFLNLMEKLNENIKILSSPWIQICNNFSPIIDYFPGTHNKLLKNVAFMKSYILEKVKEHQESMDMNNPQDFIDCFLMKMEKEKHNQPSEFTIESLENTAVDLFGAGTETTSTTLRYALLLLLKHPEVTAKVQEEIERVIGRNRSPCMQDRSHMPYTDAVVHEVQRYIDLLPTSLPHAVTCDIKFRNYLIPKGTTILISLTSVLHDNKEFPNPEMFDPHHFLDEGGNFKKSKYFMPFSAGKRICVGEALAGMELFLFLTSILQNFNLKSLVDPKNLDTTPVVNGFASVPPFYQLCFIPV
T4 sequence (P33261 whole entry): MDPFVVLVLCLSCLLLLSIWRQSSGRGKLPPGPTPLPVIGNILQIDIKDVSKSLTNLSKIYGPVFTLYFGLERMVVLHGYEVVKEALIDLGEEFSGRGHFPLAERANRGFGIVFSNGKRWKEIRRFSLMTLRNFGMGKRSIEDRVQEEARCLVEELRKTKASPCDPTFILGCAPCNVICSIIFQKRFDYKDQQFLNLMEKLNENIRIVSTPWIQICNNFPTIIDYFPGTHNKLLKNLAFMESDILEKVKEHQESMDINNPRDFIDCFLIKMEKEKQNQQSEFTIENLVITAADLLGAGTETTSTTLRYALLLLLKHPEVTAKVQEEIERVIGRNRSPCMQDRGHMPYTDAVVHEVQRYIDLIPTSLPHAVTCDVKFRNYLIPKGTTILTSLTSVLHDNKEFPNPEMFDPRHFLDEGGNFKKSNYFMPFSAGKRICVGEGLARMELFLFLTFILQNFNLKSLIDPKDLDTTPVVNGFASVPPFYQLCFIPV
T5 sequence (P10635 whole entry): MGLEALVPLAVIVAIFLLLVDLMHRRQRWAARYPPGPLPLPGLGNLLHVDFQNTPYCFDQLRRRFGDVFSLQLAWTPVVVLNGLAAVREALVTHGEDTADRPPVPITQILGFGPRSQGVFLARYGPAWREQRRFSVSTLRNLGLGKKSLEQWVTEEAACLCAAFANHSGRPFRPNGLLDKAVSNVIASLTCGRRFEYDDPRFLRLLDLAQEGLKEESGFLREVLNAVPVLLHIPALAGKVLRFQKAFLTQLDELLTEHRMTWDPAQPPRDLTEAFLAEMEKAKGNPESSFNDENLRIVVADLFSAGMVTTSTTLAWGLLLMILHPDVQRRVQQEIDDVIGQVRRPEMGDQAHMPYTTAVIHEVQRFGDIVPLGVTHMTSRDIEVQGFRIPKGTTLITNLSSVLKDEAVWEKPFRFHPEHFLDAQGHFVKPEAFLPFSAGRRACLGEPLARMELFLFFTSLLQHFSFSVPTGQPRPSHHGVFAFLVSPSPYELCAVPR

O=C(NC1CC1)c1ccc2cc(C3(O)CCn4cncc43)ccc2c1 (racemic) [5bx [7]]
pIC50 (CYP17A1 [1]): 6.600

CCCC(=O)Nc1ccc(C(=O)C(C)OC(=O)c2n[nH]c3ccccc23)cc1 (racemic) [Compound 6, 1-(4-butanamidophenyl)-1-oxopropan-2-yl-1H-indazole-3-carboxylate]
inhibitory potency of CYP17A1 (in words) (CYP17A1 [2]): micromolar levels

CNC(=O)c1ccc2cc(C(O)(c3cnc[nH]3)C(C)C)ccc2c1 (stereo not shown) [1 [11], 6-[1-Hydroxy-1-isopropyl(1H-imidazol-5-yl)methyl]-Nmethylnaphthalene-2-carboxamide]
pIC50 (CYP17A1 [1]): 7.800

Brc1ccc(Cc2ccncc2)cc1 [3g [11]]
pIC50 (CYP17A1 [1]): 6.400

COc1ccc(-c2ccc(Cc3ccncc3)cc2)cc1OC [9a [9], 4-[(3′,4′-Dimethoxybiphenyl-4-yl)methyl]pyridine]
IC50 (CYP17A1 [1]): 52 nM

Cl.Fc1ccc(-c2ccc3c(c2)CCC3c2cccnc2)cc1 (stereo not shown) [15 [13]]
pIC50 (CYP17A1 [1]): 4.700

CCc1ccc(NC(=O)c2cc(C(=O)c3cc(OC)ccc3O)coc2=N)cc1 [Compound 1, N-(4-ethylphenyl)-5-(2-hydroxy-5-methoxybenzoyl)-2-imino-2H-pyran-3-carboxamide]
IC50 (CYP1A2): 27.9 µM | IC50 (CYP2C9): 6.1 µM | IC50 (CYP2C19): 14.9 µM | IC50 (CYP2D6): 36.3 µM | IC50 (CYP3A4): 14.6 µM | inhibition of metabolic CYP450 isoforms (in words) [3]: inhibit various CYP450 isoforms | IC50 (CYP17A1 [2]): > 50 µM | inhibitory potency of CYP17A1 (in words) (CYP17A1 [2]): micromolar levels

O=C(CSc1nnc(-c2c[nH]c3ccccc23)n1Cc1ccco1)NCc1ccccc1Cl [Compound 2, N-[(2-chlorophenyl)methyl]-2-({4-[(furan-2-yl)methyl]-5-(1H-indol-3-yl)-4H-1,2,4-triazol-3-yl}sulfanyl)acetamide]
IC50 (CYP1A2): 4.5 µM | IC50 (CYP2C9): 1.8 µM | IC50 (CYP2C19): 3.5 µM | IC50 (CYP2D6): 8.1 µM | IC50 (CYP3A4): 1.1 µM | inhibition of metabolic CYP450 isoforms (in words) [3]: inhibit various CYP450 isoforms | IC50 (CYP17A1 [2]): > 50 µM | inhibitory potency of CYP17A1 (in words) (CYP17A1 [2]): micromolar levels

Cc1cccc(C(=O)OCCOc2ccc(S(N)(=O)=O)cc2)c1N [Compound 4, 2-(4-sulfamoylphenoxy)ethyl 2-amino-3-methylbenzoate]
IC50 (CYP19A1): 43.5 µM | IC50 (CYP2C9): 16 µM | IC50 (CYP2C19): 1.5 µM | IC50 (CYP3A4): 3.3 µM | inhibition of metabolic CYP450 isoforms (in words) [3]: inhibit various CYP450 isoforms

COC(C)C(=O)Nc1cccc(NC(C(N)=O)c2ccccc2)c1 (stereo not shown) [Compound 5, N-(3-{[carbamoyl(phenyl)methyl]amino}phenyl)-2-methoxypropanamide]
IC50 (CYP19A1; [4]): > 50 µM | IC50 (CYP1A2): > 50 µM | IC50 (CYP2C9): > 50 µM | IC50 (CYP2C19): > 50 µM | IC50 (CYP2D6): > 50 µM | IC50 (CYP3A4): > 50 µM

O=C1COc2cc(NCc3cccc(NC(=O)c4ccccc4Cl)c3)c(Cl)cc2N1 [Compound 7, 2-chloro-N-(3-{[(6-chloro-3-oxo-3,4-dihydro-2H-1,4-benzoxazin-7-yl)amino]methyl}phenyl)benzamide]
IC50 (CYP19A1; [4]): > 25 µM | IC50 (CYP1A2): > 50 µM | IC50 (CYP2C19): > 50 µM | IC50 (CYP2D6): > 50 µM | IC50 (CYP3A4): 0.7 µM | inhibitory potency of CYP17A1 (in words) (CYP17A1 [2]): micromolar levels

O=C1COc2cc(NCc3cccc(C(=O)Nc4cccnc4)c3)c(O)cc2N1 [Compound 8, 3-{[(6-hydroxy-3-oxo-3,4-dihydro-2H-1,4-benzoxazin-7-yl)amino]methyl}-N-(pyridin-3-yl)benzamide]
IC50 (CYP19A1; [4]): 5.9 µM | IC50 (CYP1A2): 2.7 µM | IC50 (CYP2C9): 7.9 µM | IC50 (CYP2C19): 44.6 µM | IC50 (CYP2D6): > 50 µM | IC50 (CYP3A4): 2.8 µM

O=C(Nc1ccccc1O)c1ccc(Oc2cccc(C(=O)Nc3ccccc3O)c2)cc1 [Compound 9, N-(2-hydroxyphenyl)-4-{3-[(2-hydroxyphenyl)carbamoyl]phenoxy}benzamide]
IC50 (CYP1A2): > 50 µM | IC50 (CYP2C9): > 50 µM | IC50 (CYP2C19): > 50 µM | IC50 (CYP2D6): > 50 µM | IC50 (CYP3A4): > 50 µM | IC50 (CYP17A1 [2]): > 50 µM | inhibitory potency of CYP17A1 (in words) (CYP17A1 [2]): micromolar levels

O=C1COc2cc(NCc3cccc(C(=O)Nc4cccnc4)c3)ccc2N1 [Compound 10, 3-{[(3-oxo-3,4-dihydro-2H-1,4-benzoxazin-7-yl)amino]methyl}-N-(pyridin-3-yl)benzamide]
IC50 (CYP19A1; [4]): 5.7 µM | IC50 (CYP1A2): 2.1 µM | IC50 (CYP2C9): > 50 µM | IC50 (CYP2C19): > 50 µM | IC50 (CYP2D6): > 50 µM | IC50 (CYP3A4): 6.6 µM | IC50 (CYP17A1 [2]): > 50 µM | inhibitory potency of CYP17A1 (in words) (CYP17A1 [2]): micromolar levels

O=C1COc2cc(NCc3cccc(C(=O)Nc4ccccc4O)c3)ccc2N1 [Compound 11, N-(2-hydroxyphenyl)-3-{[(3-oxo-3,4-dihydro-2H-1,4-benzoxazin-7-yl)amino]methyl}benzamide]
IC50 (CYP19A1; [4]): 8.6 µM | IC50 (CYP1A2): 26.9 µM | IC50 (CYP2C9): 4 µM | IC50 (CYP2C19): 7.6 µM | IC50 (CYP2D6): 2.7 µM | IC50 (CYP3A4): 8.3 µM | inhibition of metabolic CYP450 isoforms (in words) [3]: inhibit various CYP450 isoforms

O=C1COc2cc(NCc3cccc(C(=O)Nc4cccnc4)c3)c(Cl)cc2N1 [Compound 13, 3-{[(6-chloro-3-oxo-3,4-dihydro-2H-1,4-benzoxazin-7-yl)amino]methyl}-N-(pyridin-3-yl)benzamide]
IC50 (CYP19A1; [4]): 14.5 µM | IC50 (CYP1A2): 0.6 µM | IC50 (CYP2C19): > 50 µM | IC50 (CYP2D6): > 50 µM | IC50 (CYP3A4): 1.1 µM | inhibition of metabolic CYP450 isoforms (in words) [3]: inhibit various CYP450 isoforms | IC50 (CYP17A1 [2]): > 50 µM

COc1cc2ccc([C@](O)(c3c[nH]cn3)C(C)C)cc2cc1OC [TAK700, [(1S)-1-(6,7-dimethoxy-2-naphthyl)-1-(1H-imidazol-4-yl)-2-methylpropan-1-ol]]
IC50 (CYP17A1 [1]): 28 nM | pIC50 (CYP17A1 [1]): 7.550
